These results are taken from PMC12434668 (Journal of Medicinal Chemistry, 2025).

The subject of series [1] is Bcl-xL. In words: Selectivity for Mcl-1 over Bcl-xL. The series is classed as binding.
Series [2] concerns caspase 3/7 in H929 cells. Briefly: Caspase 3/7 induction assay (Caspase-Glo), H929. The class given is cell-based. As to conditions: compound treatment for 3 h. How it is done: (§1) Cells were treated with a 10-point compound titration and incubated at 37 °C for 3 h.
Series [3] concerns A427 cells. In words: In vitro proliferation assay (CellTiter-Glo), A427. The series is classed as cell-based. As to conditions: Homo sapiens, A-427; A427 cell line; average of at least n = 2, triplicate. In short, it runs like this:
(§2)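 Cells (A427 in RPMI1640 + 10% FCS; NCI-H929 in RPMI1640 + 10% FCS + 0.05 mM mercaptoethanol) were treated in triplicate, 0.5% DMSO final, for 72 or 96 h. CellTiter-Glo luminescence was normalized to day-0 cells, and IC50 values came from four-parameter sigmoidal fits.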

Series [4] is described as follows: Mouse pharmacokinetic analyses (i.v. and oral). The class given is in vivo. As to conditions: plasma. The gist of the method:
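Mice received compound i.v. or orally in 10% ethanol/10% Cremophor EL; alternative vehicles (20% Phosphal IPG, 20% Phosphal MCT, 10% or 40% HP-β-CD) were also screened. Plasma drug levels at set time points were quantified by HPLC–MS/MS with internal standard after acetonitrile precipitation; PK parameters derived by noncompartmental analysis.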

For series [5], the system named is caspase 3/7 in A427 cells. In words: Caspase 3/7 induction assay (Caspase-Glo), A427. The series is classed as cell-based. As to conditions: compound treatment for 3 h. How it is done: as §1
Series [6] deals with A427 cell line-derived NSCLC xenograft. In words: Subcutaneous A427 NSCLC xenograft efficacy study. The series is classed as in vivo. As to conditions: for tumor regressions (day 28): animals regressing / group. An excerpt: Female BomTac:NMRI-Foxn1nu mice and CB17/Icr-Prkdc(scid)/IcrCrl and were obtained from Taconic Denmark at an age of 6–8 weeks. After arrival of the local animal facility at Boehringer Ingelheim RCV GmbH & Co KG (institutional approval–Amt der Wiener Landesregierung, Magistratsabteilung 58, GZ: 135147/2013/4) mice were allowed to adjust to housing conditions at least for 5 days before the start of the experiment. Mice were group-housed under pathogen-free and controlled environmental conditions and handled according to the institutional, governmental and European Union guidelines (Austrian Animal Protection Laws, GV-SOLAS and FELASA guidelines). Animal studies were approved by the internal ethics committee and the local governmental committee (Amt der Wiener Landesregierung, Magistratsabteilung 58). To establish subcutaneous tumors mice were injected with 5 × 10^6 A427 cells in Matrigel (CB17/Icr-Prkdc(scid)/IcrCrl. Tumor diameters were measured with a caliper three times a week. The volume of each tumor [in mm^3] was calculated according to the formula “tumor volume = length*diameter^2*π/6.” To monitor side effects of treatment, mice were inspected daily for abnormalities and body weight was determined. Animals were sacrificed when the tumors reached a size of 1500 mm^3. Mice were dispatched randomly into treatment groups when the tumor size was 160 mm^3. Tumors were reported as regressing when the tumor volume at a given day was below the tumor volume at treatment start.

Series [7] relates to caspase 3/7 in K562 cells. In words: Caspase 3/7 induction assay (Caspase-Glo), K562. The class given is cell-based. As to conditions: compound treatment for 3 h. How it is done: as §1
Series [8] deals with T1, Mcl-1 (Homo sapiens, UniProt Q07820).
T1 construct: Briefly, a previously reported construct was subcloned into an expression vector (pDEST-HisMBP); MBP (from vector pDEST-HisMBP); made in house; host or cells: Escherichia coli BL21 CodonPlus (DE3) RIL
In words: TR-FRET binding assay (FITC-Bak peptide competition). As to conditions: in the presence of 1% fetal bovine serum; average of at least n = 2; read-out: TRFRET, Mcl-1 Ki. Background: TR-FRET usually uses a lanthanide donor and a delayed reading to cut background.

The test system of series [9] is NCI-H929 cells. Briefly: In vitro proliferation assay (CellTiter-Glo), H929. The series is classed as cell-based. As to conditions: Homo sapiens, H929 cell line, average of at least n = 2, triplicate. The gist of the method: as §2
Background: Cellular ATP, detected with luciferase, serves as a proxy for viable cell number.

The subject of series [10] is K562 cells. In words: In vitro proliferation counterscreen, Mcl-1 insensitive K562. The class given is cell-based. On the technique in general: A counterscreen serves to expose hits that act by an unwanted route or on another target.
The nature of series [11]: Kinetic aqueous solubility. As to conditions: aqueous medium at pH 6.8, pH 6.8. The series is classed as physicochemical.
Series [12] deals with Bcl-2. In words: Selectivity for Mcl-1 over Bcl-2. The class given is binding.
Details of series [13]: method as in earlier work. As to conditions: ref 66 (number lost in text); cited from earlier work.

The EC50 is the concentration that produces a half-maximal response. Read a high EC50 as a less potent agent. For orientation: GI50 means the concentration at which growth is held to half of that of the control. Usually bioavailability stands for the share of a dose that reaches the circulation, judged against a reference dose that is usually intravenous. What is called Ki is the equilibrium dissociation constant of an inhibitor or competing ligand from its target. The solubility (kinetic) is the concentration staying in solution when a stock, usually in DMSO, is diluted into the medium.

SMILES strings stand for the structures. Values after ≈ are worked out from the molar mass of the structure shown. Where two headings read alike, the source gives them in different places. Where only a bound is given, the exact number is not on record here.

T1 sequence (Q07820 whole entry): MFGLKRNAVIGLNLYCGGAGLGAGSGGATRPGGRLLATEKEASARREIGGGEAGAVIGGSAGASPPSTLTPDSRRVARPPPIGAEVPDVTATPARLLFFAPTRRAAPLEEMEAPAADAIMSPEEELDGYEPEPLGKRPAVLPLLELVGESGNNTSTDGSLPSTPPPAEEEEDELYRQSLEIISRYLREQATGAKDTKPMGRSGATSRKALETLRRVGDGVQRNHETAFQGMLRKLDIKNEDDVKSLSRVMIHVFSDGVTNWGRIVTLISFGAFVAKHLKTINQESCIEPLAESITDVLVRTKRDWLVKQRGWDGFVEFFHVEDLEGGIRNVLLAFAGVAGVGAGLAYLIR

Turning to `COc1cc2c3c(cc(C(=O)O)n3CCCOCc3nn(C)cc3-c3c(Cl)ccc4c(CCCOc5cc(C)c(Cl)c(C)c5)c5n(c34)[C@H](C)CN2C5=O)c1OC` [Compound 13, (2^63^4 S a ,1^72^2 R a ,2^4 R)-2^7-Chloro-2^10-(3-(4-chloro-3,5-dimethylphenoxy)propyl)-1^4,1^5-dimethoxy-2^4,3^1-dimethyl-2^1-oxo-2^1,2^2,2^3,2^4-tetrahydro-1^1 H,3^1 H-5-oxa-2(2,6)-pyrazino[1,2-a]indola-1(7,1)-indola-3(4,3)-pyrazolacyclooctaphane-1^2-carboxylic Acid], the “selectivity for Mcl-1 over Bcl-xL” value in series [1] is > 50,000 fold. The EC50 in [2] (Homo sapiens, NCI-H929) was 13 nM; in [5] (Homo sapiens, A-427) it was 7.8 nM; in series [7] (Homo sapiens, K562), more than 3120 nM. Further, the “H929 Caspase 3/7 maximum activity, fold over vehicle (FoV)” value in series [2] was 16 fold. Also, the GI50 in series [3] is 25 ± 9 nM; in series [9], 14 ± 4 nM; in series [10] (Homo sapiens, Mcl-1 insensitive K562, top concentration tested 12.5 µM), more than 12500 nM. In addition, the AUC in series [4] (iv, 20 mg/kg, read-out: AUCIV) is 60.9 µM·h; in [4] (iv, 30 mg/kg q14d i.v., xenograft study, read-out: AUC) it was 144 µM·h; in series [4] (iv, 60 mg/kg q14d i.v., xenograft study, read-out: AUC), 481 µM·h; in series [4] (oral, 20 mg/kg, read-out: AUCPO) it was 0.625 µM·h. Moreover, the clearance in series [4] (iv, dosed at 20 mg/kg, read-out: i.v. mouse CL) was found to be 7.4 mL/min/kg; in series [4] (iv, supplementary CSV, unit not given (Table 1: 20 mg/kg, 14 and 16 at 10 mg/kg), read-out: CL), 7.4 mL/min/kg. In addition, the bioavailability in series [4] (po, read-out: oral bioavailability (F)) was 1%. Further, the “A427 Caspase 3/7 fold over vehicle (FoV)” value in [5] was 16 fold. Moreover, the “tolerability, body weight” value in series [6] (60 mg/kg q14d i.v.) was “body weight behaved similarly to the vehicle control cohort”. Also, the “tumor regressions (day 28)” value in series [6] (60 mg/kg q14d i.v.) is reported as 7/8. In series [6] (sc, 60 mg/kg, 480 h), the “tumor outgrowth, study day” value is on record as approximately 50 study day. Further, the “K562 Caspase 3/7 fold over vehicle (FoV)” value in series [7] was found to be 1.3 fold. Also, in series [8], the Ki is less than 0.08 nM. Also, the “selectivity for Mcl-1-sensitive cell lines over the K562 control” value in series [10] (GI50 ratio) was more than 900 fold. This compound displayed a solubility (kinetic) in series [11] of 85 µg/mL (≈ 106 µM). In addition, the “selectivity for Mcl-1 over Bcl-2” value in [12] is > 50,000 fold.

For the compound `COc1c(OCC2CCOCC2)cc(N2C[C@@H](C)n3c(c(CCCOc4cc(C)c(Cl)c(C)c4)c4ccc(Cl)c(-c5c(C)nc(C)nc5C)c43)C2=O)c2c1cc(C(=O)O)n2C` [Compound 1], the AUC in series [4] (iv, 40 mg/kg q14d i.v., xenograft study, read-out: AUC) was 198 µM·h. Further, the “tumor regressions (day 28)” value in series [6] (40 mg/kg q14d i.v.) was 0/8. The “dog CL” value in [13] was 5.2 mL/min/kg.
